# Compound: O=[As]([O-])(O)O.[K+] [potassium arsenate]
# Experiment: thermal stability z-score vs DMSO; higher = more thermally stabilized by treatment
# Details: HeLa; arsenate concentration 1 mM
# Procedure: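 Cellular thermal proteome profiling in HeLa cells treated with 1 mM arsenate for 1 h (DMSO pretreatment), heated to ten temperatures (37-66.3 °C). Soluble protein was quantified by TMT mass spectrometry relative to DMSO controls; the thermal stability score was transformed to a z-score; mean of n = 3 experiments.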
# 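Also: each temperature applied for 3 min, abundance score taken as mean log2 fold change at the two lowest temperatures, z-score obtained by mean subtraction and division by SD.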
# Sequence of UniProt Q9Y2S6 (Q9Y2S6 whole entry): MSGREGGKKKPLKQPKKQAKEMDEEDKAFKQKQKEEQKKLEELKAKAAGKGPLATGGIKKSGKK
# Sequence of UniProt P62745 (P62745 whole entry): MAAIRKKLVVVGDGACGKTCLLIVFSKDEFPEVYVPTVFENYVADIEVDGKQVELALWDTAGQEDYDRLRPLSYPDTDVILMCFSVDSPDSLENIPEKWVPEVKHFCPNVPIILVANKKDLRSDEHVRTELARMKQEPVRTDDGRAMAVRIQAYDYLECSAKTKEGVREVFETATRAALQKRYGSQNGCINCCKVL
# Sequence of UniProt O43505 (O43505 whole entry, one chain of several): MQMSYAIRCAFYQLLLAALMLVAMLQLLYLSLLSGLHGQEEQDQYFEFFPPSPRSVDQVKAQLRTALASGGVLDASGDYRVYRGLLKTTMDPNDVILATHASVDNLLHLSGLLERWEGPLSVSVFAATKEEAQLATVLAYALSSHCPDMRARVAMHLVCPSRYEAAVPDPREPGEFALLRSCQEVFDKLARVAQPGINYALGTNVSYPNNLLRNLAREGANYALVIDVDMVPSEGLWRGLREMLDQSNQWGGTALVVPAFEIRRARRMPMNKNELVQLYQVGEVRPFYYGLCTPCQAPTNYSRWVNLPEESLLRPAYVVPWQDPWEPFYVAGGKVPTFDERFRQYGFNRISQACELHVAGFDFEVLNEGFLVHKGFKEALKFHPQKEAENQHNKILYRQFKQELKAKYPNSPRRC
# Sequence of UniProt Q92945 (Q92945 whole entry): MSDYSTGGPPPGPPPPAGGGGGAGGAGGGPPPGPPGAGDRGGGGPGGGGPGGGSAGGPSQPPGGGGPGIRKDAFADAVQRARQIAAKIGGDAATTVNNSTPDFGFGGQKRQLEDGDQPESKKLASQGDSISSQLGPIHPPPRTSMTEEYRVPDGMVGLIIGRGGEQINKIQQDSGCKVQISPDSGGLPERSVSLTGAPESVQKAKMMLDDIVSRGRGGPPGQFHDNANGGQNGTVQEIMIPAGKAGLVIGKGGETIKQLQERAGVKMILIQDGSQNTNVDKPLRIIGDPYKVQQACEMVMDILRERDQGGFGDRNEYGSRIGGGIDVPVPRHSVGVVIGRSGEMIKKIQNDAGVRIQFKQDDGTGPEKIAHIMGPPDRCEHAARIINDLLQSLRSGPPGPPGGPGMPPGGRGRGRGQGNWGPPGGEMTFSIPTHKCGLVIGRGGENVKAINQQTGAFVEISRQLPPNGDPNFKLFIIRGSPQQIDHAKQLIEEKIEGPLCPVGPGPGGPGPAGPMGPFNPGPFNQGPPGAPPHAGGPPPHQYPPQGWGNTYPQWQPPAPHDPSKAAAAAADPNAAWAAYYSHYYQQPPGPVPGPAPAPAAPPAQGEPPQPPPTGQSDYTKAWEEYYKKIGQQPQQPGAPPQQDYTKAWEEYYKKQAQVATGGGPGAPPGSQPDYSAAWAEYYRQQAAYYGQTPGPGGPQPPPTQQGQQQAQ
# Sequence of UniProt Q9UBC2 (Q9UBC2 whole entry): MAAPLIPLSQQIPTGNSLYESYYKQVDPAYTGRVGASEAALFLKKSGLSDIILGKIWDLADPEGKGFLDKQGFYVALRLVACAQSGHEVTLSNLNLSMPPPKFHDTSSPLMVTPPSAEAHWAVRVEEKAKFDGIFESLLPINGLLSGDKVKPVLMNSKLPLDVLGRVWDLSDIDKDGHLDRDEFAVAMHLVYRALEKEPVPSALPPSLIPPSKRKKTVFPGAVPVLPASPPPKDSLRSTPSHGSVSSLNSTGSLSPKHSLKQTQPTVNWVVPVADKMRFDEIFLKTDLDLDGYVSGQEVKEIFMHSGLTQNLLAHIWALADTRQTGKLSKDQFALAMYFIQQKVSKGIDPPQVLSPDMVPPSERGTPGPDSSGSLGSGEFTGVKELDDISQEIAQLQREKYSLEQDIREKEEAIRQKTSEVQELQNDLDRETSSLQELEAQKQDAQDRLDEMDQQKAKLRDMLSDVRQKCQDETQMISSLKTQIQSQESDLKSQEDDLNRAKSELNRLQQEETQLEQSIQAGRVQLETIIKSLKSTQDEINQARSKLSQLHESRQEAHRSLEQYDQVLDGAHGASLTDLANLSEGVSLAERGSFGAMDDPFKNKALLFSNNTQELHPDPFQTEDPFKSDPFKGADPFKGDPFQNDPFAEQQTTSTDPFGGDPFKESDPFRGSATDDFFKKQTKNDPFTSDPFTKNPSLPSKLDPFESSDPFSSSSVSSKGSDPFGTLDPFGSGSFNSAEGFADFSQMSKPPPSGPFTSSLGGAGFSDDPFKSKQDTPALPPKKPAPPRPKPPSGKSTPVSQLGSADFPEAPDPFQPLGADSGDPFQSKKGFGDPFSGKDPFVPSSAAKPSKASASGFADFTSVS
# Sequence of UniProt Q07065 (Q07065 whole entry): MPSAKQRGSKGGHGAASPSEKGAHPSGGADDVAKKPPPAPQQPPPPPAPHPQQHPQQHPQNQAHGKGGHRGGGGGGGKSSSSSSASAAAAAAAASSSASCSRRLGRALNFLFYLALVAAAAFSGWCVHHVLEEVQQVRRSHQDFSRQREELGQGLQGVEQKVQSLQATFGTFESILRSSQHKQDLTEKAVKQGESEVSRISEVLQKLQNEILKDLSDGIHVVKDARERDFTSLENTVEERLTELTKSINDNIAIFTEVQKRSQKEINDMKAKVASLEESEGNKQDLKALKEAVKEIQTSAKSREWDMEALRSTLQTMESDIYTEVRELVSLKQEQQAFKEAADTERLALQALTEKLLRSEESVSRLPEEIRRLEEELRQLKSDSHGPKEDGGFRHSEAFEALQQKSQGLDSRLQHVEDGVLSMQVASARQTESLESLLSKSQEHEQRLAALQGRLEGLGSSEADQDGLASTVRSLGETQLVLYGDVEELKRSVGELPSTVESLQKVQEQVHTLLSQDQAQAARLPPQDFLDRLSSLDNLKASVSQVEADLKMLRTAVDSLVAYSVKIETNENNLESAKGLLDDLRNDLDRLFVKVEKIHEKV
# Sequence of UniProt O75381 (O75381 whole entry, change not shown): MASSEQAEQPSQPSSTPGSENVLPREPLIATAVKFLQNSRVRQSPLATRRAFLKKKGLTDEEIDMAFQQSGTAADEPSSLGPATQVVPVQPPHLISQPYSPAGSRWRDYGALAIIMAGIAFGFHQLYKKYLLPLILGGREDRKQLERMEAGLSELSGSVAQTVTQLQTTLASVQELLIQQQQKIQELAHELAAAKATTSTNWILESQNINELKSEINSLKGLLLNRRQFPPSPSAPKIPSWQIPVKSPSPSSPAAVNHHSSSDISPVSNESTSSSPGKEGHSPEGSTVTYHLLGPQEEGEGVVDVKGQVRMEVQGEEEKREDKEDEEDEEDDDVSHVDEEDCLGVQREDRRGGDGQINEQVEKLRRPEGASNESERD
# Sequence of UniProt Q16763 (Q16763 whole entry): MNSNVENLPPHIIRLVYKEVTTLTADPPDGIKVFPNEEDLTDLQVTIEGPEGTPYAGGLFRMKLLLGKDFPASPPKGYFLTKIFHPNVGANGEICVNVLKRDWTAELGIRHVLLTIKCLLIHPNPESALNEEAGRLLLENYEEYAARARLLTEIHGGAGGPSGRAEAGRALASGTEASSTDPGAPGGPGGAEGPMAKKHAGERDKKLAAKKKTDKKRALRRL
# Sequence of UniProt P62877 (P62877 whole entry, looked up): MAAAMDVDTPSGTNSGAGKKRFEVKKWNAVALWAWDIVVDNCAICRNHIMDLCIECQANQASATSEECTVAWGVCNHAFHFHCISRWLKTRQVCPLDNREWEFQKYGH
# Sequence of UniProt Q9P246 (Q9P246 whole entry): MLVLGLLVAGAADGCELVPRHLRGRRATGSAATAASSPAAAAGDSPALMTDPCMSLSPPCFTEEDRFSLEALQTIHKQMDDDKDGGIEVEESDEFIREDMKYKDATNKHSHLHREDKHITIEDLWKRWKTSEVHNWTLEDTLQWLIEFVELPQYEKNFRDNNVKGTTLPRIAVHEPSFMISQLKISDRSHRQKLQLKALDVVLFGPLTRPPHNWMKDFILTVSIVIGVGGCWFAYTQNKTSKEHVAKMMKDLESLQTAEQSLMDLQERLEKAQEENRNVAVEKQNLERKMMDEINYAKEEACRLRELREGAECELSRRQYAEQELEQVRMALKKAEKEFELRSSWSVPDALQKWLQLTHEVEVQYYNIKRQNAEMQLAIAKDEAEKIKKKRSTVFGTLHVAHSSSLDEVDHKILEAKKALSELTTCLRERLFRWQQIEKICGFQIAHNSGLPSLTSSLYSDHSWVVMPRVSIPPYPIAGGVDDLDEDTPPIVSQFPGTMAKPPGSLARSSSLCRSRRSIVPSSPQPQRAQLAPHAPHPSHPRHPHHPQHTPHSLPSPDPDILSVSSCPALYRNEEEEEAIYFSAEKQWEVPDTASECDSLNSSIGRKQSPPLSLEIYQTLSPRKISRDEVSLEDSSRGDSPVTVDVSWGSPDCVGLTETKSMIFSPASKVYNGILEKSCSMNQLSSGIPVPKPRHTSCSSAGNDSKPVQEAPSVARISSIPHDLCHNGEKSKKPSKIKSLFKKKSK
# Sequence of UniProt Q12933 (Q12933 whole entry): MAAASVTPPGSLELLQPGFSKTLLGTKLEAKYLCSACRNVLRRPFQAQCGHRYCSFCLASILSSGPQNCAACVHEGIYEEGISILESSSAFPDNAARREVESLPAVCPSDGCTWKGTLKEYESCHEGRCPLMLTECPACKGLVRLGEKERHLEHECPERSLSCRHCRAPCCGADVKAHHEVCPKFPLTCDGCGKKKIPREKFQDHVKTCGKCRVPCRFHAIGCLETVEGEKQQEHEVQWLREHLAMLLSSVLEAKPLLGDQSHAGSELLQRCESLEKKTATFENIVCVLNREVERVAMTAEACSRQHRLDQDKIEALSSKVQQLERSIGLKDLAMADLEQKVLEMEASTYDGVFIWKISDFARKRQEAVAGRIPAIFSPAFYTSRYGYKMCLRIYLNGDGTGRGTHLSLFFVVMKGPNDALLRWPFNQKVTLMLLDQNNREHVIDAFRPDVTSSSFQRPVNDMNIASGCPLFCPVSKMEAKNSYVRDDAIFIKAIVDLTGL
# Sequence of UniProt Q7Z5G4 (Q7Z5G4 whole entry): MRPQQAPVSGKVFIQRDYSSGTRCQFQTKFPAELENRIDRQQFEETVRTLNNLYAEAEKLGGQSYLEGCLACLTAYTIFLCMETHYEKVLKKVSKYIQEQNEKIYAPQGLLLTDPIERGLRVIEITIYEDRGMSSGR
row,Target,thermal stability z-score
1,HERC4 (UniProt Q5GLZ8),0.726
2,PARP2 (UniProt Q9UGN5),-0.0979
3,NAA15 (UniProt Q9BXJ9),0.812
4,SACM1L (UniProt Q9NTJ5),0.448
5,AKAP13 (UniProt Q12802),0.667
6,TRAF2 (UniProt Q12933),-4.2
7,FADS1 (UniProt O60427),0.226
8,RHOB (UniProt P62745),-0.245
9,FOXRED2 (UniProt Q8IWF2),0.897
10,MRPL11 (UniProt Q9Y3B7),0.0228
11,TAGLN (UniProt Q01995),-1.55
12,ACOT8 (UniProt O14734),0.0313
13,GNAS,0.0562
14,PBK (UniProt Q96KB5),0.533
15,DECR2 (UniProt Q9NUI1),1.27
16,PPP6R2 (UniProt O75170),-0.937
17,CCDC134 (UniProt Q9H6E4),-0.0932
18,RAB14 (UniProt P61106),0.48
19,NMNAT1 (UniProt Q9HAN9),1.87
20,NSMCE3 (UniProt Q96MG7),0.119
21,STIM2 (UniProt Q9P246),-0.103
22,FAM136A (UniProt Q96C01),-1.98
23,MRPL38 (UniProt Q96DV4),0.134
24,MAP2K7 (UniProt O14733),0.54

row,Target,thermal stability z-score
1,SMC6 (UniProt Q96SB8),0.067
2,PGM2 (UniProt Q96G03),-0.24
3,OTUD4 (UniProt Q01804),0.258
4,ARHGDIA (UniProt P52565),0.318
5,COPG1 (UniProt Q9Y678),-0.32
6,MICU1 (UniProt Q9BPX6),0.746
7,XPA (UniProt P23025),-0.0786
8,FBN1 (UniProt P35555),0.276
9,ATP1A1 (UniProt P05023),-0.742
10,SEC22A (UniProt Q96IW7),0.684
11,YWHAQ (UniProt P27348),0.199
12,PPP2R1A (UniProt P30153),-1.48
13,TMA7 (UniProt Q9Y2S6),0.111
14,UBE2S (UniProt Q16763),0.161
15,TMOD3 (UniProt Q9NYL9),0.732
16,CKAP4 (UniProt Q07065),-0.938
17,MYL6B (UniProt P14649),-1.03
18,AP1M1 (UniProt Q9BXS5),0.791
19,KIF2A (UniProt O00139),-0.0587
20,PEX14 (UniProt O75381),-0.269
21,RHOC (UniProt P08134),0.995
22,IPPK (UniProt Q9H8X2),0.0883
23,PIK3CA (UniProt P42336),-0.45
24,PSMA2 (UniProt P25787),-0.132

row,Target,thermal stability z-score
1,RPAP1 (UniProt Q9BWH6),0.256
2,MRPL39 (UniProt Q9NYK5),0.057
3,IPO9 (UniProt Q96P70),0.165
4,MTPAP (UniProt Q9NVV4),-0.28
5,EEF1A1 (UniProt P68104),0.2
6,PLCB3 (UniProt Q01970),-0.557
7,EFTUD2 (UniProt Q15029),-0.28
8,KHSRP (UniProt Q92945),0.486
9,KIAA0930 (UniProt Q6ICG6),0.706
10,TBCC (UniProt Q15814),-0.00724
11,COPS7A (UniProt Q9UBW8),-0.0728
12,GOLGA7 (UniProt Q7Z5G4),-1.71
13,UFD1L (UniProt Q92890),0.36
14,RBX1 (UniProt P62877),0.163
15,THOC5 (UniProt Q13769),0.536
16,DAXX (UniProt Q9UER7),-0.391
17,CCSMST1 (UniProt Q4G0I0),0.624
18,TSPO,0.892
19,THOC2 (UniProt Q8NI27),0.273
20,WDR82 (UniProt Q6UXN9),-0.75
21,EPS15L1 (UniProt Q9UBC2),0.4
22,B4GAT1 (UniProt O43505),0.0622
23,ZFAND3 (UniProt Q9H8U3),-1.25
24,DCAF13 (UniProt Q9NV06),1.25

# Compound: NC(=O)CCCCC1CCSS1 [lipoamide]
# Experiment: as above
# Details: HeLa; lipoamide concentration 100 µM; arsenate co-treatment: 1 mM arsenate 1 h
# Procedure: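 Cellular thermal proteome profiling in HeLa cells. Cells were treated with 100 µM lipoamide for 1 h, with or without 1 mM arsenate for a further 1 h, then heated to ten temperatures (37-66.3 °C), and soluble protein was quantified by TMT mass spectrometry relative to 0.1% DMSO controls. The thermal stability score (sum of log2 fold changes minus the abundance score) was transformed to a z-score; mean of n = 3 experiments.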
row,Target,thermal stability z-score
1,HERC4 (UniProt Q5GLZ8),0.298
2,PARP2 (UniProt Q9UGN5),0.0296
3,NAA15 (UniProt Q9BXJ9),0.838
4,SACM1L (UniProt Q9NTJ5),-0.145
5,AKAP13 (UniProt Q12802),-0.125
6,TRAF2 (UniProt Q12933),-0.41
7,FADS1 (UniProt O60427),0.469
8,RHOB (UniProt P62745),0.0865
9,FOXRED2 (UniProt Q8IWF2),-1.43
10,MRPL11 (UniProt Q9Y3B7),-0.211
11,TAGLN (UniProt Q01995),-0.0305
12,ACOT8 (UniProt O14734),0.492
13,GNAS,0.278
14,PBK (UniProt Q96KB5),-0.583
15,DECR2 (UniProt Q9NUI1),1.26
16,PPP6R2 (UniProt O75170),-0.348
17,CCDC134 (UniProt Q9H6E4),-2.13
18,RAB14 (UniProt P61106),0.738
19,NMNAT1 (UniProt Q9HAN9),1.03
20,NSMCE3 (UniProt Q96MG7),-0.0975
21,STIM2 (UniProt Q9P246),-0.102
22,FAM136A (UniProt Q96C01),1.12
23,MRPL38 (UniProt Q96DV4),-0.319
24,MAP2K7 (UniProt O14733),-0.121

row,Target,thermal stability z-score
1,SMC6 (UniProt Q96SB8),-0.138
2,PGM2 (UniProt Q96G03),-0.0134
3,OTUD4 (UniProt Q01804),0.168
4,ARHGDIA (UniProt P52565),0.784
5,COPG1 (UniProt Q9Y678),0.243
6,MICU1 (UniProt Q9BPX6),-0.305
7,XPA (UniProt P23025),0.0325
8,FBN1 (UniProt P35555),-2.81
9,ATP1A1 (UniProt P05023),0.0243
10,SEC22A (UniProt Q96IW7),0.0383
11,YWHAQ (UniProt P27348),0.857
12,PPP2R1A (UniProt P30153),0.108
13,TMA7 (UniProt Q9Y2S6),0.356
14,UBE2S (UniProt Q16763),0.862
15,TMOD3 (UniProt Q9NYL9),-0.494
16,CKAP4 (UniProt Q07065),-3.96
17,MYL6B (UniProt P14649),-0.283
18,AP1M1 (UniProt Q9BXS5),0.126
19,KIF2A (UniProt O00139),-0.584
20,PEX14 (UniProt O75381),-0.54
21,RHOC (UniProt P08134),0.307
22,IPPK (UniProt Q9H8X2),0.199
23,PIK3CA (UniProt P42336),-0.275
24,PSMA2 (UniProt P25787),0.38

row,Target,thermal stability z-score
1,RPAP1 (UniProt Q9BWH6),-0.806
2,MRPL39 (UniProt Q9NYK5),-0.499
3,IPO9 (UniProt Q96P70),0.178
4,MTPAP (UniProt Q9NVV4),0.621
5,EEF1A1 (UniProt P68104),-0.0408
6,PLCB3 (UniProt Q01970),-0.0239
7,EFTUD2 (UniProt Q15029),0.0587
8,KHSRP (UniProt Q92945),0.21
9,KIAA0930 (UniProt Q6ICG6),0.193
10,TBCC (UniProt Q15814),-0.35
11,COPS7A (UniProt Q9UBW8),0.334
12,GOLGA7 (UniProt Q7Z5G4),-1.29
13,UFD1L (UniProt Q92890),-0.427
14,RBX1 (UniProt P62877),-0.311
15,THOC5 (UniProt Q13769),0.945
16,DAXX (UniProt Q9UER7),-0.0224
17,CCSMST1 (UniProt Q4G0I0),2.5
18,TSPO,-0.334
19,THOC2 (UniProt Q8NI27),-0.212
20,WDR82 (UniProt Q6UXN9),0.88
21,EPS15L1 (UniProt Q9UBC2),0.0401
22,B4GAT1 (UniProt O43505),-0.309
23,ZFAND3 (UniProt Q9H8U3),0.918
24,DCAF13 (UniProt Q9NV06),-0.43

# Same assay, conditions: HeLa; lipoamide concentration 100 µM; arsenate co-treatment: none
row,Target,thermal stability z-score
1,HERC4 (UniProt Q5GLZ8),-0.11
2,PARP2 (UniProt Q9UGN5),-0.0685
3,NAA15 (UniProt Q9BXJ9),0.593
4,SACM1L (UniProt Q9NTJ5),-0.499
5,AKAP13 (UniProt Q12802),-0.1
6,TRAF2 (UniProt Q12933),-0.458
7,FADS1 (UniProt O60427),0.181
8,RHOB (UniProt P62745),0.065
9,FOXRED2 (UniProt Q8IWF2),-1.2
10,MRPL11 (UniProt Q9Y3B7),0.169
11,TAGLN (UniProt Q01995),1.13
12,ACOT8 (UniProt O14734),0.113
13,GNAS,0.172
14,PBK (UniProt Q96KB5),-0.307
15,DECR2 (UniProt Q9NUI1),1.15
16,PPP6R2 (UniProt O75170),0.143
17,CCDC134 (UniProt Q9H6E4),-1.37
18,RAB14 (UniProt P61106),0.522
19,NMNAT1 (UniProt Q9HAN9),1.15
20,NSMCE3 (UniProt Q96MG7),-0.0424
21,STIM2 (UniProt Q9P246),-0.0704
22,FAM136A (UniProt Q96C01),0.665
23,MRPL38 (UniProt Q96DV4),-0.0312
24,MAP2K7 (UniProt O14733),0.341

row,Target,thermal stability z-score
1,SMC6 (UniProt Q96SB8),0.113
2,PGM2 (UniProt Q96G03),-0.155
3,OTUD4 (UniProt Q01804),0.183
4,ARHGDIA (UniProt P52565),0.465
5,COPG1 (UniProt Q9Y678),-0.177
6,MICU1 (UniProt Q9BPX6),-0.0396
7,XPA (UniProt P23025),0.0998
8,FBN1 (UniProt P35555),-2.71
9,ATP1A1 (UniProt P05023),0.186
10,SEC22A (UniProt Q96IW7),-0.0317
11,YWHAQ (UniProt P27348),0.727
12,PPP2R1A (UniProt P30153),0.121
13,TMA7 (UniProt Q9Y2S6),0.314
14,UBE2S (UniProt Q16763),0.191
15,TMOD3 (UniProt Q9NYL9),0.384
16,CKAP4 (UniProt Q07065),-2.84
17,MYL6B (UniProt P14649),0.233
18,AP1M1 (UniProt Q9BXS5),-0.43
19,KIF2A (UniProt O00139),-0.0403
20,PEX14 (UniProt O75381),-0.596
21,RHOC (UniProt P08134),0.963
22,IPPK (UniProt Q9H8X2),0.487
23,PIK3CA (UniProt P42336),-0.149
24,PSMA2 (UniProt P25787),0.455

row,Target,thermal stability z-score
1,RPAP1 (UniProt Q9BWH6),-0.223
2,MRPL39 (UniProt Q9NYK5),-0.225
3,IPO9 (UniProt Q96P70),-0.179
4,MTPAP (UniProt Q9NVV4),0.936
5,EEF1A1 (UniProt P68104),0.166
6,PLCB3 (UniProt Q01970),-0.358
7,EFTUD2 (UniProt Q15029),-0.0524
8,KHSRP (UniProt Q92945),0.161
9,KIAA0930 (UniProt Q6ICG6),0.227
10,TBCC (UniProt Q15814),-0.196
11,COPS7A (UniProt Q9UBW8),0.0778
12,GOLGA7 (UniProt Q7Z5G4),-0.742
13,UFD1L (UniProt Q92890),-0.0782
14,RBX1 (UniProt P62877),0.0681
15,THOC5 (UniProt Q13769),0.187
16,DAXX (UniProt Q9UER7),-0.149
17,CCSMST1 (UniProt Q4G0I0),2.37
18,TSPO,0.17
19,THOC2 (UniProt Q8NI27),-0.102
20,WDR82 (UniProt Q6UXN9),-0.211
21,EPS15L1 (UniProt Q9UBC2),0.0523
22,B4GAT1 (UniProt O43505),-0.831
23,ZFAND3 (UniProt Q9H8U3),0.518
24,DCAF13 (UniProt Q9NV06),-0.325

# — the supplement of paper PMC12463676, “Small-molecule dissolution of stress granules by redox modulation benefits ALS models” (Nature Chemical Biology, 2025)
